Data published in patent US20100249064A1, “METHODS AND COMPOSITIONS FOR TREATING DISEASES AND CONDITIONS INVOLVING HIGHER MOLECULAR WEIGHT HYALURONAN” (University of Chicago, priority 2007, published 2010).

How the values were obtained:
[1] = tested on: Human pulmonary artery EC; assay: Transendothelial electrical resistance (TER) of HA-treated EC monolayers, Example 1; format: cell-based; details: 5 mM MβCD or 10 μg/ml anti-CD44 (IM-7) antibody, 100 nM High or Low MW HA
Protocol: (§1) Measurement of TransEC Electrical Resistance (TER)—EC were grown to confluence in polycarbonate wells containing evaporated gold microelectrodes. TER measurements were performed using an electrical cell-substrate impedance sensing system (Applied Biophysics, Troy, N.Y.) as described (Garcia et al., 2001). TER values from each microelectrode were pooled at discrete time points and plotted versus time as the mean±S.E.

[2] = tested on: Human pulmonary artery EC; assay: Cortical actin (phalloidin) staining and quantitation; format: cell-based; details: MβCD one hour prior to 100 nM High MW HA for 30 min
Protocol: Immunofluorescence Microscopy and Cortical Actin Quantitation—Polymerized actin rearrangement was assessed first with Texas Red-conjugated phalloidin (Invitrogen (Molecular Probes), Eugene, Oreg.) and then analyzed using a Nikon Eclipse TE 300 microscope as described (Garcia et al., 2001). ImageQuant™ software (Amersham Biosciences Corp. (Piscataway, N.J.)) was used to analyze the computer recorded .tiff images. A standardized average grey value (SAGV) was generated for total phalloidin staining versus cortical phalloidin staining for each cell (Singleton et al., 2005). The following equation was used to calculate percent cortical actin staining: ((cortical actin SAGV×area) divided by (total actin SAGV×area))×100. At least ten cells per sample were analyzed. Experiments were performed in triplicate.
Immunofluorescence Microscopy. EC were serum-starved for one hour prior to the addition of 100 nM high MW HA. EC were then fixed in 4% paraformaldehyde, permeablized with ethanol and incubated with specific protein or interest primary antibody for 30 min followed by either FITC or Texas Red-conjugated secondary (Invitrogen (Molecular Probes), Eugene, Oreg.) and analyzed using a Nikon Eclipse TE 300 microscope as described (Garcia et. al., 2001).

[3] = tested on: Human pulmonary microvascular EC (HPMVEC); assay: EC electrical resistance (TER), HGF; format: cell-based; details: 5 mM MβCD 30 min prior to 25 ng/ml HGF
Protocol: as §1, with “EC” for “TransEC”, “Resistance—EC” for “Resistance (TER)—EC”, “microelectrodes, and” for “microelectrodes.”, “obtained from Applied Biophysics (Troy,” for “(Applied Biophysics, Troy,”

[4] = tested on: Rac1; assay: Rac1 activation assay, HGF; format: cell-based, human; details: 5 mM MβCD prior to 25 ng/ml HGF
Protocol: Rac1 Activation Assay—Rac1 activity assays were performed as described (Ren et al., 1999) in human lung EC.

[5] = tested on: Human pulmonary EC; assay: TER, Example 5; format: cell-based; details: MβCD or IM-7 antibody
Protocol: (§2) Measurement of TransEC Electrical Resistance (TER). EC were grown to confluence in polycarbonate wells containing evaporated gold microelectrodes, and TER measurements performed using an electrical cell-substrate impedance sensing system (Applied Biophysics, Troy, N.Y.) as previously described (Garcia et al., 2001). TER values from each microelectrode were pooled at discrete time points and plotted versus time as the mean±S.E.

[6] = target: T1, Tiam1 (human, UniProt Q13009 2-1591, limits assumed); assay: immunoprecipitation of dynamin 2 from CEM fractions of human EC, immunoblot with anti-Tiam1
T1 construct: Endogenous protein in CEM fractions; also called T-lymphoma invasion and metastasis gene 1
Protocol: Immunoprecipitation and Immunoblotting—Cellular materials from treated or untreated HPMVEC were incubated with IP buffer (50 mM HEPES (pH 7.5), 150 mM NaCl, 20 mM MgCl₂, 1% Nonidet P-40 (NP-40), 0.4 mM Na₃VO₄, 40 mM NaF, 50 μM okadaic acid, 0.2 mM phenylmethylsulfonyl fluoride, 1:250 dilution of Calbiochem protease inhibitor mixture 3). Following immunoprecipitation with either anti-CD44 or anti-dynamin 2 IgG, the samples were subjected to SDS-PAGE in 4-15% polyacrylamide gels, transferred onto Immobilon™ membranes, and developed with specific primary and secondary antibodies. Enhanced chemiluminescence (Amersham Biosciences) was used to visualize immunoreactive bands. In some instances, standardized average grey values (S.A.G.V., processed from ImageQuant™ software (Amersham Biosciences)) were obtained for immunoreactive bands for quantification.
Role of Tiam1, cortactin and dynamin 2 in HGF/c-Met-mediated human EC barrier enhancement. Since CD44 appears to regulate HGF-induced EC barrier enhancement (FIG. 12), whether Tiam1, cortactin and/or dynamin 2 were involved in HGF-induced increases in EC barrier integrity was examined. […] Silencing CD44 (siRNA) expression attenuated the HGF-induced recruitment of these molecules to CEM (FIG. 13-B); silencing either Tiam1 or dynamin 2 expression abolished cortactin localization to CEM (FIG. 14-A and -B). […]

[7] = tested on: Human pulmonary EC; assay: TER, HABP2/C1INH regulation of EC barrier function (Examples 3 and 6); format: cell-based; details: purified C1INH; 1.0 μg/ml LPS, 100 nM HA, 10 μg/ml HABP2
Protocol: as §2, with “transendothelial monolayer electrical resistance” for “TransEC Electrical Resistance”, “obtained from Applied Biophysics (Troy,” for “(Applied Biophysics, Troy,”, “described in detail” for “described”, “al.” for “al.,”
Determination of EC barrier function. Human pulmonary endothelial cells were grown to confluence in polycarbonate wells containing evaporated gold microelectrodes (surface area, 10-3 cm^2) in series with a large gold counter electrode (1 cm^2) connected to a phase-sensitive lock-in amplifier as described previously. Measurements of transendothelial electrical resistance (TER) were performed using an electrical cell-substrate impedance sensing system (ECIS) (Applied BioPhysics Inc.). Briefly, current was applied across the electrodes by a 4,000-Hz AC voltage source with amplitude of 1 V in series with a 1 MS/resistance to approximate a constant current source (˜1 μA). The in-phase and out-of-phase voltages between the electrodes were monitored in real time with the lock-in amplifier and subsequently converted to scalar measurements of transendothelial impedance, of which resistance was the primary focus. TER was monitored for 30 minutes to establish a baseline resistance (R0) which, for pulmonary endothelium, was typically between 8 to 12×10^3Ω (wells with R0<7×10^3Ω were rejected). As cells adhere and spread out on the microelectrode, TER increases (maximal at confluence), whereas cell retraction, rounding, or loss of adhesion was reflected by a decrease in TER. These measurements provide a highly sensitive biophysical assay that indicates the state of cell shape and focal adhesion. Values from each microelectrode were pooled at discrete time points and plotted versus time as the mean±SE of the mean (Garcia et al., 2001).

[8] = target: T2, HABP2, murine (mouse lung) (mouse, UniProt Q8K0D2 24-558, limits assumed); assay: anti-HABP2 immunoprecipitation of mouse lung homogenates, non-reducing SDS-PAGE, immunoblot
T2 construct: Immunoprecipitated with anti-HABP2 antibody from mouse lung homogenates; also called murine HABP2
Protocol: FIG. 24 Analysis of HABP2 and C1INH expression and complex formation in murine lungs with or without LPS treatment and effective silencing of HABP2 expression in murine lungs. Panel A—Male B6129N2 mice (8-10 weeks) were anesthetized with intraperitoneal ketamine (150 mg/kg) and acetylpromazine (15 mg/kg) before exposure of the right internal jugular vein via neck incision. LPS (2.5 mg/kg) or water (control) were instilled […]. The animals were allowed to recover for 24 hours after LPS before lung extraction. Extracted lungs were homogenized, N=6 samples per condition were pooled, run on SDS-PAGE and immunoblotted with anti-HABP2 (1), anti-C1INH (2) or anti-actin (3) antibody. Panel B—Homogenized lung samples as described in Panel A were immunoprecipitated with anti-HABP2 antibody, run on non-reducing SDS-PAGE and immunoblotted with either anti-HABP2 or anti-C1INH antibody. The upper arrow indicates an SDS-stable complex between HABP2 and C1INH. The lower arrow indicates the free (active) faun of HABP2. Panel C—Male B6129N2 mice (8-10 weeks) were anesthetized with intraperitoneal ketamine (150 mg/kg) and acetylpromazine (15 mg/kg) before exposure of the right internal jugular vein via neck incision. 10 mg/kg in vivo stable scramble siRNA (control) or HABP2 siRNA (Dharmacon) were instilled intravenously through the internal jugular vein. […]

T2 sequence (Q8K0D2 24-558 limits assumed): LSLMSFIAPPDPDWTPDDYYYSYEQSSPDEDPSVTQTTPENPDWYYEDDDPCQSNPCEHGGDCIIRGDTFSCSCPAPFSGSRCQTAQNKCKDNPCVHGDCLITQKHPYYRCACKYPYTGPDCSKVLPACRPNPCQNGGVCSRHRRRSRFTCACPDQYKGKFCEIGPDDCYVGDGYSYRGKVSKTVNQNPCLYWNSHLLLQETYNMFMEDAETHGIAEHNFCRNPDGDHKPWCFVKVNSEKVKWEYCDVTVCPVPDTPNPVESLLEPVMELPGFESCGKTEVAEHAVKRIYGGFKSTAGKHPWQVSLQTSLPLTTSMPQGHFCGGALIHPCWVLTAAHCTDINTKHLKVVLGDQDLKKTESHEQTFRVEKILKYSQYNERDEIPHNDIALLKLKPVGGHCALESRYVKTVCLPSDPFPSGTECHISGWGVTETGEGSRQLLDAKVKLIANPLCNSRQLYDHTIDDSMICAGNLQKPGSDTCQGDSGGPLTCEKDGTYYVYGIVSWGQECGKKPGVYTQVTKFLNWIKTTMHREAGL
T1 sequence (Q13009 2-1591 limits assumed): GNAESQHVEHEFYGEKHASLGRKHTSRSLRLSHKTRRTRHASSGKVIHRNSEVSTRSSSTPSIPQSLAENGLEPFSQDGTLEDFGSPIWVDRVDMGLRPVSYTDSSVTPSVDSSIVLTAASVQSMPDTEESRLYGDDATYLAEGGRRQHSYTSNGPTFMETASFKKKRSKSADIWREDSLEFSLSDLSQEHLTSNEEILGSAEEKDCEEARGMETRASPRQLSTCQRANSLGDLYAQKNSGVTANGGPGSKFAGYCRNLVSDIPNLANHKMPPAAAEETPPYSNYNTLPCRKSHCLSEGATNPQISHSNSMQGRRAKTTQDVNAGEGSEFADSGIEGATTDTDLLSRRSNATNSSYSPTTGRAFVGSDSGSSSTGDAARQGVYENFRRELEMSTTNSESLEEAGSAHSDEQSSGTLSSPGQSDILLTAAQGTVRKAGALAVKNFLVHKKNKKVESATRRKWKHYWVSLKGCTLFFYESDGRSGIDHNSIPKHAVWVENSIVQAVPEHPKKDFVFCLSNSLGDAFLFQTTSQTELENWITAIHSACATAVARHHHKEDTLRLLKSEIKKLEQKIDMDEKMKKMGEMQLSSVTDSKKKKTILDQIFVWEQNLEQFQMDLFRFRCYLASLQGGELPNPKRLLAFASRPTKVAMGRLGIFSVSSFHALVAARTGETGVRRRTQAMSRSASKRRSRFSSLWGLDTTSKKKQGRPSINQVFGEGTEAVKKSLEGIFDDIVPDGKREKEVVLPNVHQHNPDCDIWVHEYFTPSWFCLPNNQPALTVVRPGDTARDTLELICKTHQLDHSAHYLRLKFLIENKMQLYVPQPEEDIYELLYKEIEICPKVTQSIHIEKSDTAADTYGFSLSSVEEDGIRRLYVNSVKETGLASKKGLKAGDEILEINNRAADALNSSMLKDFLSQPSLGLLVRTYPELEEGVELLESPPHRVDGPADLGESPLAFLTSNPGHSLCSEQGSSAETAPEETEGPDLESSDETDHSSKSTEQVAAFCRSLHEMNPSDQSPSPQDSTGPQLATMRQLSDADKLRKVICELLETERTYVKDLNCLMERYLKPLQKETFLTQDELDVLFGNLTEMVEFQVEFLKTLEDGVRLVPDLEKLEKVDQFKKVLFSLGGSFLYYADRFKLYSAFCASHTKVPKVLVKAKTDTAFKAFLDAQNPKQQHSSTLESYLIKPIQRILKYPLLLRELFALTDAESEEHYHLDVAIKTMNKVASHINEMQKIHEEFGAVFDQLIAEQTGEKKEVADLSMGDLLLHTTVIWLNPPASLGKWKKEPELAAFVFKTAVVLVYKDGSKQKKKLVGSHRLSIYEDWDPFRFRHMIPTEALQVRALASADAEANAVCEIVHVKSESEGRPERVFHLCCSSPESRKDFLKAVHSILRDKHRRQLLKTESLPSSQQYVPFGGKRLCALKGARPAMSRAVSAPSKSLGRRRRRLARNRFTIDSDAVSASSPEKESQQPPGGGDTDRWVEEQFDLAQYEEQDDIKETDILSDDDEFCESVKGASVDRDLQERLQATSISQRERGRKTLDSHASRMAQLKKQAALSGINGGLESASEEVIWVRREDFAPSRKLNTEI

With methyl-β-cyclodextrin the “inhibition of HA-induced changes in TER” value [1] was “abolished both HMW- and LMW-HA-induced changes in TER”, the “inhibition of HMW-HA induced cortical actin reorganization” value [2] was “HMW-HA induced cortical actin reorganization was inhibited” and the “inhibition of HGF-induced increases in EC barrier function (TER)” value [3] was “attenuated HGF-induced increases in human EC barrier function”. For the same molecule, the “inhibition of HGF-induced Rac1 activation” value [4] was “inhibited HGF-induced Rac1 activation” and the “inhibition of effects of HA on TER” value [5] was “effects of HA on TER were inhibited”.

B1: dynamin 2 (other, human, UniProt P50570 1-870, looked up)
chain: MGNRGMEELIPLVNKLQDAFSSIGQSCHLDLPQIAVVGGQSAGKSSVLENFVGRDFLPRGSGIVTRRPLILQLIFSKTEHAEFLHCKSKKFTDFDEVRQEIEAETDRVTGTNKGISPVPINLRVYSPHVLNLTLIDLPGITKVPVGDQPPDIEYQIKDMILQFISRESSLILAVTPANMDLANSDALKLAKEVDPQGLRTIGVITKLDLMDEGTDARDVLENKLLPLRRGYIGVVNRSQKDIEGKKDIRAALAAERKFFLSHPAYRHMADRMGTPHLQKTLNQQLTNHIRESLPALRSKLQSQLLSLEKEVEEYKNFRPDDPTRKTKALLQMVQQFGVDFEKRIEGSGDQVDTLELSGGARINRIFHERFPFELVKMEFDEKDLRREISYAIKNIHGVRTGLFTPDLAFEAIVKKQVVKLKEPCLKCVDLVIQELINTVRQCTSKLSSYPRLREETERIVTTYIREREGRTKDQILLLIDIEQSYINTNHEDFIGFANAQQRSTQLNKKRAIPNQGEILVIRRGWLTINNISLMKGGSKEYWFVLTAESLSWYKDEEEKEKKYMLPLDNLKIRDVEKGFMSNKHVFAIFNTEQRNVYKDLRQIELACDSQEDVDSWKASFLRAGVYPEKDQAENEDGAQENTFSMDPQLERQVETIRNLVDSYVAIINKSIRDLMPKTIMHLMINNTKAFIHHELLAYLYSSADQSSLMEESADQAQRRDDMLRMYHALKEALNIIGDISTSTVSTPVPPPVDDTWLQSASSHSPTPQRRPVSSIHPPGRPPAVRGPTPGPPLIPVPVGAAASFSAPPIPSRPGPQSVFANSDLFPAPPQIPSRPVRIPPGIPPGVPSRRPPAAPSRPTIIRPAEPSLLD
notes: Immunoprecipitated with rabbit anti-dynamin 2 antibody from solubilized CEM fractions
B1: no binding [6].

B2: C1INH, murine (mouse lung) (other, UniProt P97290 23-504, looked up)
chain: DPEATSHSTQDPLEAQAKSRESFPERDDSWSPPEPTVLPSTWPTTSVAITITNDTMGKVANESFSQHSQPAAQLPTDSPGQPPLNSSSQPSTASDLPTQATTEPFCPEPLAQCSDSDRDSSEAKLSEALTDFSVKLYHAFSATKMAKTNMAFSPFSIASLLTQVLLGAGDSTKSNLESILSYPKDFACVHQALKGFSSKGVTSVSQIFHSPDLAIRDTYVNASQSLYGSSPRVLGPDSAANLELINTWVAENTNHKIRKLLDSLPSDTCLVLLNAVYLSAKWKITFEPKKMMAPFFYKNSMIKVPMMSSVKYPVAQFDDHTLKAKVGQLQLSHNLSFVIVVPVFPKHQLKDVEKALNPTVFKAIMKKLELSKFLPTYLTMPHIKVKSSQDMLSVMEKLEFFDFTYDLNLCGLTEDPDLQVSAMKHETVLELTESGVEAAAASAISFGRSLPIFEVQRPFLFLLWDQQHRFPVFMGRVYDPRG
notes: Detected with anti-C1INH antibody in anti-HABP2 immunoprecipitates of mouse lung homogenates
With B2 the “effect on EC barrier changes (TER) induced by LPS, LMW-HA, HABP2 and HMW-HA” value [7] was “inhibited the EC barrier disrupting effects of LPS, LMW-HA and HABP2 while enhancing the barrier protective effects of HMW-HA” and the binding result [8] was “binds”.
